# Laboratory results: US20090137664A1, “SAURURUS CERNUUS COMPOUNDS THAT INHIBIT CELLULAR RESPONSES TO HYPOXIA” (priority 2003, published 2009)
# How the values were obtained:
# Type in all cases: cell-based
# LOX IMVI = test: NCI in vitro cell line screen (SRB), Melanoma LOX IMVI
# Protocol: (§1) For exemplary purposes, an embodiment of the present invention was tested for activity with respect to certain cancer cell lines. The following Tables show results from in vitro 60-cell line antitumor testing from the US National Cancer Institute Developmental Therapeutics Program (NCI-DTP) on compound 2. The testing was in connection with the NCI's In Vitro Cell Line Screening Project (IVCLSP). Detailed information regarding the experiments and their interpretation is available from the NCI.
# SK-MEL-5 = test: NCI in vitro cell line screen (SRB), Melanoma SK-MEL-5
# Protocol: as §1
# tumor cell lines = test: NCI in vitro 60-cell line antitumor testing, GI50 pattern; details: GI50 60-cell line pattern
# Protocol: as §1
# Table 2 depicts the GI50 mean bar graph for tumor cell lines, grouped into various categories (such as colon, breast, etc.) The data are arranged to display the relative response selectivity of each cell line relative to one other. This form of data display is used to examine the relative tumor specificity of a text compound. The curves represent the response of each tumor cell line when treated with compound 2.
# Antitumor agents with tumor-specific selectivity are highly desired, in order to reduce the incidence of non-selective cytotoxicity to patients. […] This is of special importance since this NCI/ADR-RES cell line is resistant to many currently used antitumor agents such as adriamycin, taxol, and others.
# BT-549 = test: NCI in vitro cell line screen (SRB), Breast Cancer BT-549
# Protocol: as §1
# MDA-MB-435 = test: NCI in vitro cell line screen (SRB), Breast Cancer MDA-MB-435
# Protocol: as §1
# NCI-H322M = test: NCI in vitro cell line screen (SRB), Non-Small Cell Lung Cancer NCI-H322M
# Protocol: as §1
# HOP-62 = test: NCI in vitro cell line screen (SRB), Non-Small Cell Lung Cancer HOP-62
# Protocol: as §1
# OVCAR-8 = test: NCI in vitro cell line screen (SRB), Ovarian Cancer OVCAR-8
# Protocol: as §1
# A498 = test: NCI in vitro cell line screen (SRB), Renal Cancer A498
# Protocol: as §1
# MOLT-4 = test: NCI in vitro cell line screen (SRB), Leukemia MOLT-4
# Protocol: as §1
# SF-539 = test: NCI in vitro cell line screen (SRB), CNS Cancer SF-539
# Protocol: as §1
# [1] = Homo sapiens, read-out: LC50 (the source's name)
structure (smiles),measurement,setting,value
"COc1ccc([C@@H](O)[C@@H](C)Oc2ccc([C@H]3O[C@H](c4ccc(O[C@H](C)[C@H](O)c5ccc6c(c5)OCO6)c(OC)c4)[C@H](C)[C@H]3C)cc2OC)cc1OC [Compound 2, manassantin B]",TGI,LOX IMVI,>1.00E−4 Molar
same,GI50,LOX IMVI; Homo sapiens,2.19 µM
same,CC50,LOX IMVI; [1],> 100 µM
same,Mean Optical Densities,LOX IMVI; Log10 Concentration −4.0 Molar,0.353
same,Percent Growth,LOX IMVI; Log10 Concentration −4.0 Molar,12%
same,Mean Optical Densities,LOX IMVI; Log10 Concentration −5.0 Molar,0.396
same,Percent Growth,LOX IMVI; Log10 Concentration −5.0 Molar,18%
same,Mean Optical Densities,LOX IMVI; Log10 Concentration −6.0 Molar,0.703
same,Percent Growth,LOX IMVI; Log10 Concentration −6.0 Molar,66%
same,Mean Optical Densities,LOX IMVI; Log10 Concentration −7.0 Molar,0.743
same,Percent Growth,LOX IMVI; Log10 Concentration −7.0 Molar,73%
same,Mean Optical Densities,LOX IMVI; Log10 Concentration −8.0 Molar,0.778
same,Percent Growth,LOX IMVI; Log10 Concentration −8.0 Molar,78%
same,TGI,SK-MEL-5,1.85E−6 Molar
same,GI50,SK-MEL-5; Homo sapiens,< 0.01 µM
same,CC50,SK-MEL-5; [1],9.04 µM
same,Mean Optical Densities,SK-MEL-5; Log10 Concentration −4.0 Molar,0.097
same,Percent Growth,SK-MEL-5; Log10 Concentration −4.0 Molar,−79%
same,Mean Optical Densities,SK-MEL-5; Log10 Concentration −5.0 Molar,0.222
same,Percent Growth,SK-MEL-5; Log10 Concentration −5.0 Molar,−53%
same,Mean Optical Densities,SK-MEL-5; Log10 Concentration −6.0 Molar,0.771
same,Percent Growth,SK-MEL-5; Log10 Concentration −6.0 Molar,19%
same,Mean Optical Densities,SK-MEL-5; Log10 Concentration −7.0 Molar,1.053
same,Percent Growth,SK-MEL-5; Log10 Concentration −7.0 Molar,38%
same,Mean Optical Densities,SK-MEL-5; Log10 Concentration −8.0 Molar,0.980
same,Percent Growth,SK-MEL-5; Log10 Concentration −8.0 Molar,33%
same,selectivity for tumor cell lines,tumor cell lines,"up to 10,000 fold"
same,TGI,BT-549,1.32E−5 Molar
same,GI50,BT-549; Homo sapiens,1.07 µM
same,CC50,BT-549; [1],> 100 µM
same,Mean Optical Densities,BT-549; Log10 Concentration −4.0 Molar,0.474
same,Percent Growth,BT-549; Log10 Concentration −4.0 Molar,−22%
same,Mean Optical Densities,BT-549; Log10 Concentration −5.0 Molar,0.620
same,Percent Growth,BT-549; Log10 Concentration −5.0 Molar,3%
same,Mean Optical Densities,BT-549; Log10 Concentration −6.0 Molar,0.813
same,Percent Growth,BT-549; Log10 Concentration −6.0 Molar,51%
same,Mean Optical Densities,BT-549; Log10 Concentration −7.0 Molar,0.868
same,Percent Growth,BT-549; Log10 Concentration −7.0 Molar,65%
same,Mean Optical Densities,BT-549; Log10 Concentration −8.0 Molar,0.838
same,Percent Growth,BT-549; Log10 Concentration −8.0 Molar,58%
same,TGI,MDA-MB-435,>1.00E−4 Molar
same,GI50,MDA-MB-435; Homo sapiens,1.88 µM
same,CC50,MDA-MB-435; [1],> 100 µM
same,Mean Optical Densities,MDA-MB-435; Log10 Concentration −4.0 Molar,0.534
same,Percent Growth,MDA-MB-435; Log10 Concentration −4.0 Molar,1%
same,Mean Optical Densities,MDA-MB-435; Log10 Concentration −5.0 Molar,0.605
same,Percent Growth,MDA-MB-435; Log10 Concentration −5.0 Molar,10%
same,Mean Optical Densities,MDA-MB-435; Log10 Concentration −6.0 Molar,1.079
same,Percent Growth,MDA-MB-435; Log10 Concentration −6.0 Molar,65%
same,Mean Optical Densities,MDA-MB-435; Log10 Concentration −7.0 Molar,1.179
same,Percent Growth,MDA-MB-435; Log10 Concentration −7.0 Molar,77%
same,Mean Optical Densities,MDA-MB-435; Log10 Concentration −8.0 Molar,1.122
same,Percent Growth,MDA-MB-435; Log10 Concentration −8.0 Molar,70%
same,TGI,NCI-H322M,>1.00E−4 Molar
same,GI50,NCI-H322M; Homo sapiens,19.7 µM
same,LC50,NCI-H322M; Homo sapiens,> 100 µM
same,Mean Optical Densities,NCI-H322M; Log10 Concentration −4.0 Molar,1.146
same,Percent Growth,NCI-H322M; Log10 Concentration −4.0 Molar,28%
same,Mean Optical Densities,NCI-H322M; Log10 Concentration −5.0 Molar,1.266
same,Percent Growth,NCI-H322M; Log10 Concentration −5.0 Molar,59%
same,Mean Optical Densities,NCI-H322M; Log10 Concentration −6.0 Molar,1.380
same,Percent Growth,NCI-H322M; Log10 Concentration −6.0 Molar,89%
same,Mean Optical Densities,NCI-H322M; Log10 Concentration −7.0 Molar,1.370
same,Percent Growth,NCI-H322M; Log10 Concentration −7.0 Molar,86%
same,Mean Optical Densities,NCI-H322M; Log10 Concentration −8.0 Molar,1.315
same,Percent Growth,NCI-H322M; Log10 Concentration −8.0 Molar,72%
same,TGI,HOP-62,>1.00E−4 Molar
same,GI50,HOP-62; Homo sapiens,57.3 µM
same,CC50,HOP-62; [1],> 100 µM
same,Mean Optical Densities,HOP-62; Log10 Concentration −4.0 Molar,0.739
same,Percent Growth,HOP-62; Log10 Concentration −4.0 Molar,44%
same,Mean Optical Densities,HOP-62; Log10 Concentration −5.0 Molar,0.893
same,Percent Growth,HOP-62; Log10 Concentration −5.0 Molar,68%
same,Mean Optical Densities,HOP-62; Log10 Concentration −6.0 Molar,0.971
same,Percent Growth,HOP-62; Log10 Concentration −6.0 Molar,81%
same,Mean Optical Densities,HOP-62; Log10 Concentration −7.0 Molar,0.982
same,Percent Growth,HOP-62; Log10 Concentration −7.0 Molar,82%
same,Mean Optical Densities,HOP-62; Log10 Concentration −8.0 Molar,0.924
same,Percent Growth,HOP-62; Log10 Concentration −8.0 Molar,73%
same,TGI,OVCAR-8,>1.00E−4 Molar
same,GI50,OVCAR-8; Homo sapiens,23.7 µM
same,CC50,OVCAR-8; [1],> 100 µM
same,Mean Optical Densities,OVCAR-8; Log10 Concentration −4.0 Molar,0.873
same,Percent Growth,OVCAR-8; Log10 Concentration −4.0 Molar,46%
same,Mean Optical Densities,OVCAR-8; Log10 Concentration −5.0 Molar,0.952
same,Percent Growth,OVCAR-8; Log10 Concentration −5.0 Molar,53%
same,Mean Optical Densities,OVCAR-8; Log10 Concentration −6.0 Molar,1.298
same,Percent Growth,OVCAR-8; Log10 Concentration −6.0 Molar,82%
same,Mean Optical Densities,OVCAR-8; Log10 Concentration −7.0 Molar,1.092
same,Percent Growth,OVCAR-8; Log10 Concentration −7.0 Molar,65%
same,Mean Optical Densities,OVCAR-8; Log10 Concentration −8.0 Molar,1.311
same,Percent Growth,OVCAR-8; Log10 Concentration −8.0 Molar,83%
same,TGI,A498,>1.00E−4 Molar
same,GI50,A498; Homo sapiens,13.2 µM
same,CC50,A498; [1],> 100 µM
same,Mean Optical Densities,A498; Log10 Concentration −4.0 Molar,1.223
same,Percent Growth,A498; Log10 Concentration −4.0 Molar,14%
same,Mean Optical Densities,A498; Log10 Concentration −5.0 Molar,1.343
same,Percent Growth,A498; Log10 Concentration −5.0 Molar,55%
same,Mean Optical Densities,A498; Log10 Concentration −6.0 Molar,1.419
same,Percent Growth,A498; Log10 Concentration −6.0 Molar,80%
same,Mean Optical Densities,A498; Log10 Concentration −7.0 Molar,1.433
same,Percent Growth,A498; Log10 Concentration −7.0 Molar,85%
same,Mean Optical Densities,A498; Log10 Concentration −8.0 Molar,1.414
same,Percent Growth,A498; Log10 Concentration −8.0 Molar,79%
same,TGI,MOLT-4,>1.00E−4 Molar
same,GI50,MOLT-4; Homo sapiens,44.7 µM
same,LC50 (concentration killing 50% of cells),MOLT-4; Homo sapiens,> 100 µM
same,Mean Optical Densities,MOLT-4; Log10 Concentration −4.0 Molar,0.416
same,Percent Growth,MOLT-4; Log10 Concentration −4.0 Molar,47%
same,Mean Optical Densities,MOLT-4; Log10 Concentration −5.0 Molar,0.462
same,Percent Growth,MOLT-4; Log10 Concentration −5.0 Molar,55%
same,Mean Optical Densities,MOLT-4; Log10 Concentration −6.0 Molar,0.685
same,Percent Growth,MOLT-4; Log10 Concentration −6.0 Molar,90%
same,Mean Optical Densities,MOLT-4; Log10 Concentration −7.0 Molar,0.646
same,Percent Growth,MOLT-4; Log10 Concentration −7.0 Molar,84%
same,Mean Optical Densities,MOLT-4; Log10 Concentration −8.0 Molar,0.646
same,Percent Growth,MOLT-4; Log10 Concentration −8.0 Molar,84%
same,TGI,SF-539,>1.00E−4 Molar
same,GI50,SF-539; Homo sapiens,6.28 µM
same,CC50,SF-539; [1],> 100 µM
same,Mean Optical Densities,SF-539; Log10 Concentration −4.0 Molar,0.535
same,Percent Growth,SF-539; Log10 Concentration −4.0 Molar,21%
same,Mean Optical Densities,SF-539; Log10 Concentration −5.0 Molar,0.629
same,Percent Growth,SF-539; Log10 Concentration −5.0 Molar,41%
same,Mean Optical Densities,SF-539; Log10 Concentration −6.0 Molar,0.848
same,Percent Growth,SF-539; Log10 Concentration −6.0 Molar,87%
same,Mean Optical Densities,SF-539; Log10 Concentration −7.0 Molar,0.914
same,Percent Growth,SF-539; Log10 Concentration −7.0 Molar,101%
same,Mean Optical Densities,SF-539; Log10 Concentration −8.0 Molar,0.880
same,Percent Growth,SF-539; Log10 Concentration −8.0 Molar,94%
